Key:
pooled normal plasma = test: Thrombelastography/CLSM in pooled normal plasma (INR 1.0) with or without tPA; assay type: biochemical, human
Description: Pooled normal plasma (George King Bio-Medical, Overland Park, Kans.) anticoagulated with sodium citrate was utilized for experimentation. […] Plasma anticoagulated with sodium citrate procured from anonymous donors treated with warfarin was also obtained from the same vendor.
Plasma sample composition of experiments without tPA addition. The final volume for all subsequently described plasma sample mixtures was 359.6 μL. Sample composition consisted of 326 μL of plasma, 10 μL of tissue factor reagent (0.1% final concentration in dH2O; Instrumentation Laboratory, Lexington, Mass.), 3.6 μL of dimethyl sulfoxide (DMSO) or DMSO with CORM-2 (100 μM final concentration; Sigma-Aldrich, St. Louis, Mo.), and 20 μL of 200 mM CaCl2. Tissue factor stock was kept on ice prior to use and was remade every two hours. […] DMSO was added to dry CORM-2 just prior to placement into the plasma mixture. Six replicate experiments were performed with pooled normal plasma with or without CORM-2 added, whereas plasma obtained from subjects treated with warfarin underwent singlicate experiments with or without CORM-2 exposure.
Plasma sample composition of experiments with tPA addition. As in the series of experiments without tPA addition, the final volume of plasma sample mixtures was 359.6 μL. Sample composition consisted of 316 μL of plasma; 10 μL of tissue factor reagent (0.1% final concentration); 3.6 μL of DMSO without or with CORM-2 (100 μM final concentration); 10 μL of tPA diluted with 10 mM potassium phosphate buffer (pH 7.4) for a final activity of 100 IU/mL; and 20 μL of 200 mM CaCl2. As with tissue factor reagent, tPA stock was kept on ice prior to use and was remade every two hours. Six replicate experiments were performed with pooled normal plasma with or without CORM-2 added, whereas plasma obtained from subjects treated with warfarin underwent singlicate experiments with or without CORM-2 exposure.
Clot Lifespan Model Analyses. Plasma sample mixtures were placed in a disposable cup in a computer-controlled THROMBELASTOGRAPH® hemostasis system (Model 5000, Haemoscope Corp., Niles, Ill.), with addition of CaCl2 as the last step to initiate clotting. In the first series of experiments, no tPA was added and data were collected until clot strength (maximum amplitude) was stable. In the second series of experiments in which tPA was added, data were collected until clot lysis time occurred. […] The nomenclature used to describe these phenomena is as follows: Time to maximum rate of thrombus generation (TMRTG): This is the time interval (sec) observed prior to maximum speed of clot growth. Maximum rate of thrombus generation (MRTG): This is the maximum velocity of clot growth observed (dynes/cm^2/sec). Total Thrombus Generation (TTG): This is the total area under the velocity curve during clot growth (dynes/cm^2), representing the amount of clot strength generated during clot growth. Time to maximum rate of lysis (TMRL): This is the time interval (sec) measured from the time of maximum strength to the time when the velocity of clot disintegration is maximal. Maximum Rate of Lysis (MRL): This is the maximum velocity of clot disintegration observed (—dynes/cm^2/sec). Area of Clot Lysis (ACL): This is the total area under the velocity curve during clot disintegration (−dynes/cm^2), representing the amount of clot strength lost during clot disintegration.

[1] = test system: fibrinogen deficient plasma; test: Thrombelastography in fibrinogen deficient plasma with added fibrinogen; assay type: biochemical, human
Description: Plasma types, purified proteins and compounds. Prothrombin deficient plasma (George King Bio-Medical, Overland Park, Kans.) anticoagulated with sodium citrate was utilized for experimentation concerning the effects of CORM-2 on prothrombin. Purified prothrombin (Enzyme Research Laboratories, South Bend, Ind.) that was 95% pure (10.4 mg/mL, 11.1 U/mg, suspended in 20 mM Tris-HCl in 0.1M NaCl at pH 7.4) was used for experimentation. Fibrinogen deficient plasma (Affinity Biologicals, Inc., Ancaster, Ontario, Canada) anticoagulated with sodium citrate was used in experiments investigating the effects of CORM-2 on fibrinogen. […] CORM-2 and dimethyl sulfoxide (DMSO) were obtained from Sigma-Aldrich, St. Louis, Mo.
Fibrinogen deficient plasma experiments. In these experiments, the final plasma sample mixture volume was 358.6 μL. Sample composition consisted of 260 μL of fibrinogen deficient plasma, 65 μL of pure fibrinogen solution, and dH2O to generate discrete fibrinogen concentrations subsequently described, 3.6 μL of DMSO or CORM-2 in DMSO (final CORM-2 concentration 0 or 100 μM, n=4 per fibrinogen concentration), 10 μL of tissue factor reagent (0.1% final concentration), and 20 μL of 200 mM CaCl2. The fibrinogen concentrations studied were 100, 200, 300, 400, 500, 600, and 800 mg/dL.
Thrombelastographic monitoring. Plasma sample mixtures were placed in a disposable cup in a computer-controlled THROMBELASTOGRAPH® hemostasis system (Model 5000, Haemoscope Corp., Niles, Ill.), with addition of CaCl2 as the last step to initiate clotting. Data were collected until clot strength stabilized. The following previously described variables (Examples 1-3) were determined at 37° C.: Time to maximum rate of thrombus generation (TMRTG): This is the time interval (sec) observed prior to maximum speed of clot growth. […]
Statistical Analyses. […] The difference between the mean values of MRTG or TTG in samples exposed to 0 or 100 μM CORM-2 were determined and expressed as percent difference secondary to CORM-2 exposure in the fibrinogen deficient plasma experiments.

[2] = no tPA, 100 μM CORM-2, mean ± SD, n=6
[3] = tPA 100 U/ml, 100 μM CORM-2, mean ± SD, n=6
[4] = tPA 100 U/ml, 100 μM vs 0 μM CORM-2
[5] = 100 μM vs 0 μM CORM-2, fibrinogen 300 mg/dL

For `[C-]#[O+].[C-]#[O+].[C-]#[O+].[C-]#[O+].[C-]#[O+].[C-]#[O+].[Cl][Ru][Cl].[Cl][Ru][Cl]` [CORM-2, tricarbonyldichlororuthenium (II) dimer], the “MRTG (maximum rate of thrombus generation)” value (pooled normal plasma; [2]) was 15.0 ± 2.4 dynes/cm^2/sec, the “TMRTG (time to maximum rate of thrombus generation)” value (pooled normal plasma; [2]) was 2.26 ± 0.03 min and the “TTG (total thrombus generation)” value (pooled normal plasma; [2]) was 285 ± 38 dynes/cm^2. The “Percent Change of MRTG” value (pooled normal plasma; no tPA, 100 μM vs 0 μM CORM-2) was 102%, the “Percent Change of TMRTG” value (pooled normal plasma; no tPA, 100 μM vs 0 μM CORM-2) was −5% and the “Percent Change of TTG” value (pooled normal plasma; no tPA, 100 μM vs 0 μM CORM-2) was 70%. For the same compound, the “CGT (clot growth time)” value (pooled normal plasma; [3]) was 7.00 ± 0.94 min, the “CLS (clot lifespan)” value (pooled normal plasma; [3]) was 39.07 ± 2.82 min and the “CLT (clot lysis time)” value (pooled normal plasma; [3]) was 32.07 ± 3.15 min. For the same compound, the “MRL (maximum rate of lysis)” value (pooled normal plasma; [3]) was −2.4 ± 0.5 −dynes/cm^2/sec, the “MRTG (maximum rate of thrombus generation)” value (pooled normal plasma; [3]) was 15.2 ± 1.3 dynes/cm^2/sec and the “TMRL (time to maximum rate of lysis)” value (pooled normal plasma; [3]) was 22.92 ± 1.93 min. The “TMRTG (time to maximum rate of thrombus generation)” value (pooled normal plasma; [3]) was 2.14 ± 0.05 min, the “TTG (total thrombus generation)” value (pooled normal plasma; [3]) was 284 ± 27 dynes/cm^2 and the “Percent Change of CGT” value (pooled normal plasma; [4]) was 58%. The “Percent Change of CLS” value (pooled normal plasma; [4]) was 91%, the “Percent Change of CLT” value (pooled normal plasma; [4]) was 100% and the “Percent Change of MRL” value (pooled normal plasma; [4]) was 68%. For the same compound, the “Percent Change of MRTG” value (pooled normal plasma; [4]) was 97%, the “Percent Change of TMRL” value (pooled normal plasma; [4]) was 103% and the “Percent Change of TMRTG” value (pooled normal plasma; [4]) was −2%. The “Percent Change of TTG” value (pooled normal plasma; [4]) was 106%, the “TMRTG, range of values” ([1]; 100 μM CORM-2, fibrinogen 100-800 mg/dL) was 2.83 to 4.00 min and the “increase in MRTG secondary to CORM-2 exposure” value [1, 5] was > 80%. For the same compound, the “increase in TTG secondary to CORM-2 exposure” value [1, 5] was > 80%.
